# Test results as given in patent US12595251B2, “Amidines and amidine analogs for the treatment of bacterial infections and potentiation antibiotics” (GEORGIA STATE UNIVERSITY RESEARCH FOUNDATION, INC., priority 2018, dated 2026).
# Structures can show the parent of a compound that is named as a salt.
# Legend:
# E. coli = E. coli viability with antibiotic in absence or presence of compound (OD600, 20 h); format: cell-based, Escherichia coli; conditions: M-1 25 μM or 12 μM; A-1 12 μM; A-8; 20 h
# Description: (§1) Bacterial viability was then determined by measuring density using OD600.
# wild type B. subtilis = assay: Sensitization of B. subtilis toward antibiotics (MIC, OD600, 24 h); format: cell-based, Bacillus subtilis
# Description: FIG. 22A is a bar graph showing that Compound M-1 sensitizes B. subtilis towards rifampicin as described in Example 13. Bacteria was cultured with rifampicin at various concentrations in the presence or absence of Compound M-1 for 24 hours at 37° C. and bacterial growth density was determined by measuring OD600. The y-axis is growth density measured in percent. The x-axis is rifampicin concentration measured in micrograms per milliliter (***: p<0.01).
# Compound M-1 can sensitize Gram-positive bacteria such as B. subtilis towards traditional antibiotics. […] The sensitization fold is 32-fold for Compound M-1 and the FIC index is 0.14.
# E. coli and MRSA = assay: Relative ratio of E. coli and MRSA under trovafloxacin with/without Compound A-8; format: cell-based, Escherichia coli; Staphylococcus aureus
# Description: FIG. 23A is a comparison of the relative ratio of E. coli and MRSA treated with the antibiotic trovafloxacin in the absence (pie chart on the left) and in the presence (pie chart on the right) of Compound A-8 as described in Example 14. In the absence of Compound A-8, trovafloxacin preferred to inhibit E. coli and the bacterial population was 78% MRSA. However, Compound A-8 sensitizes trovafloxacin to MRSA.
# (§2) As a proof of concept, the relative ratio of E. coli and MRSA (FIG. 23A) or B. subtilis and MRSA (FIG. 23 B) was measured with and without Compound A-8. […] However, when trovafloxacin (8 ng/ml) is supplied with 1.5 μg/ml of Compound A-8, MRSA inhibition was achieved and E. coli was the dominant species (89% of the bacteria population).
# wild-type E. coli = assay: Sensitization of wild-type E. coli toward antibiotics (MIC of antibiotic with/without sensitizer); format: cell-based, Escherichia coli
# Description: Bacteria were cultured with the antibiotic at various concentrations in the presence or absence of bacterial sensitizer for 24 hours at 37° C. Bacterial growth density was determined by measuring OD600 (absorbance measured at a wavelength of 600 nm). […]
# The formula for calculating FIC is shown below: […]
# MRSA = assay: Sensitization of MRSA toward antibiotics (OD600, 24 h); format: cell-based, Staphylococcus aureus
# Description: Bacteria was cultured with rifampicin at various concentrations in the presence or absence of Compound M-1 for 24 hours at 37° C. and bacterial growth density was determined by measuring OD600. The y-axis is growth density measured in percent. The x-axis is rifampicin concentration measured in micrograms per milliliter (***: p<0.01).
# Compound M-1 (2.7 μg/ml) sensitizes MRSA towards existing antibiotics such as rifampicin (32-fold) (FIG. 22B) and trovafloxacin (16-fold). Rifampicin is the first line of defense against MRSA and many MRSA stains grow resistance to rifampicin through overexpression of efflux pump and other mechanisms. Combined with Compound M-1, rifampicin can be used more effectively against MRSA.
# B. subtilis and MRSA = assay: Relative ratio of B. subtilis and MRSA under trovafloxacin with/without Compound A-8; format: cell-based, Bacillus subtilis; Staphylococcus aureus
# Description: FIG. 23B is a comparison of the relative ratio of B. sub and MRSA treated with the antibiotic trovafloxacin in the absence (pie chart on the left) and in the presence (pie chart on the right) of Compound A-8 as described in Example 14. […] However, Compound A-8 sensitizes trovafloxacin to MRSA.
# as §2
# B. subtilis = B. subtilis viability with antibiotic in absence or presence of compound (OD600, 20 h); format: cell-based, Bacillus subtilis; conditions: M-1 12.5 or 6 μM; A-2 6 or 12.5 μM; A-8; 20 h
# Description: Bacterial viability was then determined by measuring density using OD600. […] B. subtilis was also cultured with either novobiocin or tetracycline at varying concentrations either in the absence or presence of compound M-1 (12.5 μM) for 20 hours. Bacterial viability was subsequently determined by measuring density using OD600.
# as §1
# Klebsiella pneumoniae = assay: Sensitization of Klebsiella pneumoniae to clarithromycin; format: cell-based; conditions: FIG. 16
# Description: The x-axis is clarithromycin measured in μg/ml and the y-axis is growth measured in percent.
# [1] = trovafloxacin in presence of Compound A-8
smiles,measurement,setting,value
"Cc1cc(CCc2ccc(C(=N)N)cc2)cc(CCc2ccc(C(=N)N)cc2)c1 [Compound A-8, 4,4′-((5-Methyl-1,3-phenylene)bis(ethane-2,1-diyl))dibenzimidamide Dihydrochloride]","E. coli growth inhibition, compound in combination with erythromycin",E. coli,growth inhibition was also observed
same,Concentration required to sensitize B. subtilis towards rifampicin 32-fold,wild type B. subtilis,3 µg/mL
same,E. coli share of the bacteria population (E. coli + MRSA),E. coli and MRSA; trovafloxacin (8 ng/ml) with 1.5 μg/ml of Compound A-8,89%
same,MRSA share of the bacteria population (E. coli + MRSA),E. coli and MRSA; [1],11%
same,Concentration required to sensitize wild type E. coli towards rifampicin 32-fold,wild-type E. coli,7 µg/mL
same,Sensitization fold,"wild-type E. coli; compound at 5 μg/ml, strain and antibiotic not stated in Table 8",16
same,Concentration required to sensitize MRSA towards rifampicin 32-fold,MRSA,1.5 µg/mL
same,Sensitization of MRSA towards rifampicin (qualitative),"MRSA; FIG. 22B, 24 h, 37 °C",sensitize MRSA towards rifampicin
same,B. subtilis share of the bacteria population (B. subtilis + MRSA),B. subtilis and MRSA; 8 ng/ml trovafloxacin and 1.5 μg/ml of Compound A-8,99.5%
same,MRSA share of the bacteria population (B. subtilis + MRSA),B. subtilis and MRSA; [1],0.5%
same,"B. subtilis growth inhibition, compound in combination with erythromycin vs erythromycin alone",B. subtilis,significant bacterial growth inhibition
same,Sensitization of Klebsiella pneumoniae to clarithromycin,Klebsiella pneumoniae,sensitization of Klebsiella pneumoniae to clarithromycin
